Laboratory results: patent publication US20060276464A1, “Diarylsulfone sulfonamides and use thereof” (Wyeth, priority 2005, published 2006)
Structures can show the parent of a compound that is named as a salt. Where two headings read alike, the source gives them in different places.

Columns and labels:
SFRP-1 [1] = target: T1, SFRP-1 (Homo sapiens, UniProt Q8N474); experiment: Fluorescence polarization binding assay (competitive displacement of a probe compound from SFRP-1); settings: fluorescence anisotropy, 45 nM SFRP-1, 20 nM probe;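 also: test compound competes with a fluorescent probe held by SFRP-1, seen as a drop in probe anisotropy after incubation in darkness, with anisotropy as function of rising compound dose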
T1 sequence (Q8N474 32-314): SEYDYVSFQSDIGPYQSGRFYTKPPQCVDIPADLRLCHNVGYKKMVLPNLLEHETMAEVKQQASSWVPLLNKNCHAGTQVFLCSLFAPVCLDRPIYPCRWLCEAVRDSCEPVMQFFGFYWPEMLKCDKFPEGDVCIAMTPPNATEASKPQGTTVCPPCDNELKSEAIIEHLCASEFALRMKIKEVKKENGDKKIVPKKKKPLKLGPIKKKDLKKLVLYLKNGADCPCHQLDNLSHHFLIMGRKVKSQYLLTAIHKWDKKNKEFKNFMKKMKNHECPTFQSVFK

SFRP-1 [2] = target: T1, SFRP-1; experiment: Cell-based assay for in vitro measurement of SFRP-1/SARP2 antagonist activity (U2OS cells co-transfected with 16x TCF-tk-Luciferase reporter, Wnt and hSFRP-1); settings: for fold induction at 10 µM / fold induction at 15 µM: U2OS; for fold induction at 10 µM: read-out: Fold Induction with SFRP-1, U2OS cells, single dose 10 μM, luciferase reporter, fold induction over SFRP-1 control;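 as to all read-outs here: U2OS cells co-transfected with a TCF-tk luciferase reporter, a Wnt vector, hSFRP-1 or empty vector and CMV-βgal, luciferase luminescence read in cell lysates alongside βgal activity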
[3] = read-out: Fold Induction with SFRP-1, Conc 15 μM, with SFRP-1, fold induction over SFRP-1 control, single dose
[4] = read-out: Fold Induction without SFRP-1, Conc 15 μM, without SFRP-1, single dose
[5] = read-out: Fold Induction with SFRP-1, Conc 15 μM, single dose, luciferase reporter, fold induction over SFRP-1 control, cells with SFRP-1
[6] = read-out: Fold Induction without SFRP-1, Conc 15 μM, single dose, luciferase reporter, cells without SFRP-1 (specificity control)

Row | SMILES | IC50 (SFRP-1 [1]) [nM] | EC50 (SFRP-1 [2]) [nM] | fold induction at 10 µM (SFRP-1 [2]) | fold induction at 15 µM (SFRP-1 [2]; [3]) | fold induction at 15 µM (SFRP-1 [2]; [4]) | fold induction at 15 µM (SFRP-1 [2]; [5]) | fold induction at 15 µM (SFRP-1 [2]; [6])
1 | O=C(c1ccc(=O)n(S(=O)(=O)c2cc(S(=O)(=O)c3ccccc3)ccc2C(F)(F)F)c1)N1CCC(NS(=O)(=O)c2cc(S(=O)(=O)c3ccccc3)ccc2C(F)(F)F)CC1 [Example 1020, N-{1-[(6-oxo-1-{[5-(phenylsulfonyl)-2-(trifluoromethyl)phenyl]sulfonyl}-1,6-dihydropyridin-3-yl)carbonyl]piperidin-4-yl}-5-(phenylsulfonyl)-2-(trifluoromethyl)benzenesulfonamide] | 600 | 264 | – | – | – | – | –
2 | O=S(=O)(NC[C@@H](O)c1ccccc1)c1cc(S(=O)(=O)c2ccccc2)ccc1C(F)(F)F [Example 774, N-[(2S)-2-hydroxy-2-phenylethyl]-5-(phenylsulfonyl)-2-(trifluoromethyl)benzenesulfonamide] | 60 | 973 | 1.3 | – | – | – | –
3 | O=C([C@@H]1CCCN1C(=O)c1ccc(Cl)nc1)N1CCC(NS(=O)(=O)c2cc(S(=O)(=O)c3ccccc3)ccc2C(F)(F)F)CC1 [Example 1079, N-(1-{1-[(6-chloropyridin-3-yl)carbonyl]-L-prolyl}piperidin-4-yl)-5-(phenylsulfonyl)-2-(trifluoromethyl)benzenesulfonamide] | 40 | 329 | – | – | – | – | –
4 | CNc1ccc(S(=O)(=O)c2ccc(C)c(S(=O)(=O)NCCc3ccccn3)c2)cc1 [Example 356, 2-methyl-5-{[4-(methylamino)phenyl]sulfonyl)-N-(2-pyridin-2-ylethyl)benzenesulfonamide] | 1700 | – | – | 2.5 | 1 | – | –
5 | O=S(=O)(NC1CCN(Cc2nn[nH]n2)CC1)c1cc(S(=O)(=O)c2ccccc2)ccc1C(F)(F)F [Example 885, 5-(phenylsulfonyl)-N-[1-(2H-tetrazol-5-ylmethyl)piperidin-4-yl]-2-(trifluoromethyl)benzenesulfonamide] | 400 | 2090 | 2.7 | – | – | – | –
6 | CNCCNS(=O)(=O)c1cc(S(=O)(=O)c2ccccc2)ccc1C(F)(F)F [Example 799, N-[2-(Methylamino)ethyl]-5-(phenylsulfonyl)-2-(trifluoromethyl)benzenesulfonamide hydrochloride] | 8000 | – | 2.2 | – | – | – | –
7 | Cc1ccc(S(=O)(=O)c2ccc(F)cc2)cc1S(=O)(=O)NC1CCN(Cc2ccccc2)CC1 [Example 574, N-(1-benzylpiperidin-4-yl)-5-[(4-fluorophenyl)sulfonyl]-2-methylbenzenesulfonamide] | 6000 | – | – | – | – | 2.1 | 1.2
8 | O=C(c1cc(Cl)nc(Cl)c1)N1CCC(NS(=O)(=O)c2cc(S(=O)(=O)c3ccccc3)ccc2C(F)(F)F)CC1 [Example 857, N-[1-(2,6-dichloroisonicotinoyl)piperidin-4-yl]-5-(phenylsulfonyl)-2-(trifluoromethyl)benzenesulfonamide] | 150 | 1190 | 4.4 | – | – | – | –
9 | CN(CCCNS(=O)(=O)c1cc(S(=O)(=O)c2ccccc2)ccc1C(F)(F)F)C(=O)NC1CCNCC1 [Example 971, N-(3-{methyl[(piperidin-4-ylamino)carbonyl]amino}propyl)-5-(phenylsulfonyl)-2-(trifluoromethyl)benzenesulfonamide] | 600 | 774 | 2.7 | – | – | – | –
10 | Cc1ccc(S(=O)(=O)c2ccccc2)cc1S(=O)(=O)NC1CCN(C(=O)CN(C)C)CC1 [Example 486, N-[1-(N,N-dimethylglycyl)piperidin-4-yl]-2-methyl-5-(phenylsulfonyl)benzenesulfonamide] | 5000 | – | – | – | – | 2.1 | 1.1
11 | O=S(=O)(NCc1ccc(N2CCOCC2)nc1)c1cc(S(=O)(=O)c2ccccc2)ccc1C(F)(F)F [Example 1033, N-[(6-morpholin-4-ylpyridin-3-yl)methyl]-5-(phenylsulfonyl)-2-(trifluoromethyl)benzenesulfonamide] | 500 | 1520 | – | – | – | – | –
12 | CN(C)c1ccc(S(=O)(=O)c2ccc(C(F)(F)F)c(S(=O)(=O)NC3CCNCC3)c2)cc1 [Example 843, 5-{[4-(dimethylamino)phenyl]sulfonyl}-N-piperidin-4-yl-2-(trifluoromethyl)benzenesulfonamide] | 260 | 2010 | 4.7 | – | – | – | –
13 | CC(C)(C)OC(=O)N1CCC(NS(=O)(=O)c2cc(S(=O)(=O)c3ccc(F)cc3)ccc2C(F)(F)F)CC1 [Example 818, tert-butyl 4-({[5-[(4-fluorophenyl)sulfonyl]-2-(trifluoromethyl)phenyl]sulfonyl}amino)piperidine-1-carboxylate] | 300 | 1320 | 2.6 | – | – | – | –
14 | Cc1ccc(S(=O)(=O)c2ccc(NCC3CC3)cc2)cc1S(=O)(=O)NCCCn1ccnc1 [Example 368, 5-({4-[(cyclopropylmethyl)amino]phenyl}sulfonyl)-N-[3-(1H-imidazol-1-yl)propyl]-2-methylbenzenesulfonamide] | 900 | – | – | 2.5 | 1 | – | –
15 | CCCc1ccc(S(=O)(=O)c2ccccc2)cc1S(=O)(=O)NC1CCNCC1 [Example 925, 5-(phenylsulfonyl)-N-piperidin-4-yl-2-propylbenzenesulfonamide] | 8000 | 2150 | 3 | – | – | – | –
16 | C#CCOC(=O)N1CCC(NS(=O)(=O)c2cc(S(=O)(=O)c3ccccc3)ccc2C)CC1 [Example 487, prop-2-yn-1-yl 4-({[2-methyl-5-(phenylsulfonyl)phenyl]sulfonyl}amino)piperidine-1-carboxylate] | 500 | – | – | – | – | 2.1 | 1.1
17 | N=C(N)Nc1ccc(CCNS(=O)(=O)c2cc(S(=O)(=O)c3ccccc3)ccc2C(F)(F)F)cc1 [Example 998, N-[2-(4-{[amino(imino)methyl]amino}phenyl)ethyl]-5-(phenylsulfonyl)-2-(trifluoromethyl)benzenesulfonamide] | 300 | 2200 | – | – | – | – | –
18 | CCc1ccc(S(=O)(=O)c2ccccc2)cc1S(=O)(=O)NCCCN(CC)CC [Example 230, N-[3-(diethylamino)propyl]-2-ethyl-5-(phenylsulfonyl)benzene sulfonamide] | 16000 | – | – | 3.2 | 1.2 | – | –
19 | CC(C)c1ccc(S(=O)(=O)c2ccc(F)cc2)cc1S(=O)(=O)NCC1CCCO1 (stereo not shown) [Example 532, 5-[(4-fluorophenyl)sulfonyl]-2-isopropyl-N-(tetrahydrofuran-2-ylmethyl)benzenesulfonamide] | 4000 | – | – | – | – | 2.8 | 1.1
20 | CC(C)c1ccc(S(=O)(=O)c2ccc(F)cc2)cc1S(=O)(=O)NC[C@H](C)c1ccccc1 [Example 443, 5-[(4-fluorophenyl)sulfonyl]-2-isopropyl-N-[(2R)-2-phenylpropyl]benzenesulfonamide] | 600 | – | – | 2.5 | 1.1 | – | –
21 | CN(CCNS(=O)(=O)c1cc(S(=O)(=O)c2ccccc2)ccc1C(F)(F)F)C(=O)OCC(C)(C)C [Example 867, 2,2-dimethylpropyl methyl[2-({[5-(phenylsulfonyl)-2-(trifluoromethyl)phenyl]sulfonyl}amino)ethyl]carbamate] | 800 | – | 2.8 | – | – | – | –
22 | CC(C)(C)OC(=O)N1CCC(NS(=O)(=O)c2cc(S(=O)(=O)c3ccc(C(=O)O)cc3)ccc2C(F)(F)F)CC1 [Example 1066, 4-{[3-({[1-(tert-butoxycarbonyl)piperidin-4-yl]amino}sulfonyl)-4-(trifluoromethyl)phenyl]sulfonyl}benzoic acid] | 240 | 615 | – | – | – | – | –
23 | Cc1ccc(S(=O)(=O)c2ccccc2)cc1S(=O)(=O)NC1CCN(C(=O)c2ccc(Cl)cc2)CC1 [Example 466, N-[1-(4-chlorobenzoyl)piperidin-4-yl]-2-methyl-5-(phenylsulfonyl)benzenesulfonamide] | 1700 | – | – | 1.7 | 1.1 | – | –
24 | CC(C)c1ccc(S(=O)(=O)c2ccc(N3CCN(C(=O)OC(C)(C)C)CC3)cc2)cc1S(=O)(=O)NC1CCOCC1 [Example 625, tert-butyl 4-[4-({4-isopropyl-3-[(tetrahydro-2H-pyran-4-ylamino)sulfonyl]phenyl}sulfonyl)phenyl]piperazine-1-carboxylate] | 3000 | – | – | – | – | 2.2 | 1.1
25 | CCc1ccc(S(=O)(=O)c2ccc(C)c(S(=O)(=O)NCCc3ccccn3)c2)cc1 [Example 418, 5-[(4-ethylphenyl)sulfonyl]-2-methyl-N-(2-pyridin-2-ylethyl)benzenesulfonamide] | 1300 | – | – | 2.3 | 1.2 | – | –
26 | CSCCC(=O)N1CCC(NS(=O)(=O)c2cc(S(=O)(=O)c3ccccc3)ccc2C(F)(F)F)CC1 [Example 1053, N-{1-[3-(methylthio)propanoyl]piperidin-4-yl}-5-(phenylsulfonyl)-2-(trifluoromethyl)benzenesulfonamide] | 40 | 190 | – | – | – | – | –
